Data: patent US11958855B2, “Aurora kinase inhibitors for inhibiting mitotic progression” (Millennium Pharmaceuticals, Inc., priority 2006, dated 2024)

Assays:
[1] = test system: HCT-116 human colon carcinoma xenograft; experiment: In vivo tumor efficacy model, mouse HCT116 human colon carcinoma xenograft
Experimental: In Vivo Tumor Efficacy Model
HCT-116 (1×10^6) cells in McCoy's 5A medium were aseptically injected into the subcutaneous space in the right dorsal flank of female CD-1 nude mice (age 8 weeks, Charles River) using a 23-ga needle. Tumor volumes were calculated using standard procedures (0.5×(length×width^2)). […]. Doses (0.1 mL) were administered via 22 gauge oral gavage needle. Control animals received vehicle alone. Animals were dosed once daily for 21 days, and there were 10 animals in each group. Tumor size and body weight were measured twice per week. Compounds 1 and iii were well-tolerated at all doses in this study. […]

[2] = test system: SW480 cells; experiment: BrdU cell proliferation assay in SW480 cells
Experimental: BrdU Cell Proliferation Assay
(§1) Cell proliferation of each cell line was measured using the cell proliferation enzyme-linked immunosorbent assay (ELISA), 5-bromo-2′-deoxyuridine (BrdU) colorimetric kit according to the manufacturer's recommendations. The assay measures cell proliferation by quantifying BrdU incorporation into replicating deoxyribonucleic acid (DNA). Briefly, each well was incubated with 10 μL of BrdU labeling reagent for 2 hours at 37° C. in a humidified cell culture chamber. After aspiration of the labeling media, the cells were fixed and denatured by adding 200 μL of ethanol to each well and incubated for 30 minutes at room temperature.
(§2) Concentration response curves were generated by calculating the decrease in optical density in samples treated with test compound relative to the DMSO-treated controls.

[3] = test system: HCT116 cells; experiment: BrdU cell proliferation assay in HCT116 cells
Experimental: BrdU Cell Proliferation Assay
as §1, §2

[4] = target: T1, Aurora A (Homo sapiens, UniProt O14965); experiment: pT288 Aurora A autophosphorylation assay; format: cell-based; settings: HCT-116 cells, 60 minutes treatment
T1 construct: Human tumor cells (HCT-116, obtained from ATCC) were grown on 96-well dishes; host or cells: HCT-116
T1 sequence (O14965 1-403): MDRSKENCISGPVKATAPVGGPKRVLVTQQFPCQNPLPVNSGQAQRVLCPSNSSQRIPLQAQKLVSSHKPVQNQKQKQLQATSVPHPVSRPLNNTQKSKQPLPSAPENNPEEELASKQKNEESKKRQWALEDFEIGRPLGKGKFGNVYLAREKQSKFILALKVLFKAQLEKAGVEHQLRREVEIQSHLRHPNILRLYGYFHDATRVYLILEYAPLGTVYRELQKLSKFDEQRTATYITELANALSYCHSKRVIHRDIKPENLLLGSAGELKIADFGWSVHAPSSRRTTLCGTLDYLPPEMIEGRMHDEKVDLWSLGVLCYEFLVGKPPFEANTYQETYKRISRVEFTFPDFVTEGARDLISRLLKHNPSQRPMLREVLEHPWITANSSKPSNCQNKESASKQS
Experimental: pT288 Aurora A Autophosphorylation Assay.
After incubation, the growth medium was replaced with 75 μL of fresh media and 25 μL of test compound was added to the cells in two-fold serial dilutions in dimethyl sulfoxide (DMSO) to achieve final concentrations ranging from 5 to 0.010 μM. Test compound at each dilution was added as replicates in 4 rows on the dish, and DMSO (20 nM) was added to each well of two columns for the untreated controls. The cells were treated with test compound or DMSO for 60 minutes at 37° C. in a humidified cell culture chamber. Cells were then fixed with 4% para-formaldehyde in phosphate-buffered saline (PBS) for 10 minutes, permeated with 0.5% Triton X-100 in PBS for 10 minutes, and washed twice in PBS.
Cells were visualized using a Discovery-1 High Content Imaging System. Images from nine or sixteen sites per well were captured at 200× magnification. Inhibition of Aurora A was determined by measuring pT288 (Aurora A autophosphorylation) fluorescent intensity within MPM2 immunopositive (mitotic) cells using Metamorph software. Concentration response curves were generated by calculating the decrease of pT288 fluorescent intensity in test compound-treated samples relative to the DMSO-treated controls, and growth inhibition (IC50) values were determined from those curves.

[5] = oral, once daily for 21 days, at each dose

## COc1cc(Nc2ncc3c(n2)-c2ccc(Cl)cc2C(c2c(F)cccc2OC)=NC3)ccc1C(=O)O [Compound 1, 4-{[9-chloro-7-(2-fluoro-6-methoxyphenyl)-5H-pyrimido[5,4-d][2]benzazepin-2-yl]amino}-2-methoxybenzoic acid]
[1]; mouse HCT116 human colon carcinoma xenograft model
  in vivo potency compared with compound iii: more potent than compound iii
[1]; mouse, in vivo, po
  tolerability: well-tolerated
[1]; [5]
  tumor growth delay (TGD) compared with compound iii: longer tumor growth delay
  tumor growth inhibition (TGI) compared with compound iii: greater tumor growth inhibition
[2]
  BrdU SW480 LD50: 0.41 µM
[3]
  BrdU HCT116 LD50: 0.03 µM

## COc1cccc(F)c1C1=NCc2cnc(Nc3ccc(C(=O)O)cc3)nc2-c2ccc(Cl)cc21 [iii]
[4]
  IC50: 18 nM
[1]; oral, once daily for 21 days, all doses, female CD-1 nude mice
  tolerability: well-tolerated
[2]
  BrdU SW480 LD50: 0.94 µM
[3]
  BrdU HCT116 LD50: 0.13 µM

## COc1cc(Nc2ncc3c(n2)-c2ccc(Cl)cc2C(c2ccccc2F)=NC3)ccc1C(=O)O [ii]
[4]
  IC50: 150 nM
[2]
  BrdU SW480 LD50: 7.579 µM
[3]
  BrdU HCT116 LD50: 0.758 µM

## O=C(O)c1ccc(Nc2ncc3c(n2)-c2ccc(Cl)cc2C(c2ccccc2F)=NC3)cc1 [i]
[2]
  BrdU SW480 LD50: 6.502 µM
[3]
  BrdU HCT116 LD50: 0.707 µM
